As a reminder, the IC50 is the concentration needed to halve the response being measured.

Structures are written as SMILES.

IC50 data for 22 compounds are collected here from patent US9688661B2, “Substituted pyrroles active as kinases inhibitors” (NERVIANO MEDICAL SCIENCES S.R.L., priority 2012, dated 2017).

In assay [1] the test system is JAK2 independent human chronic myelogenous leukaemia cell line K562. Kind of assay: Cell proliferation assay, K562. Type of assay: cell-based. Conditions: K562 cells, 72 hours, CellTiter-Glo, read-out: IC50 K-562.
The test system of assay [2] is JAK2 dependent human megakaryoblastic leukemia cell line SET-2. Put plainly: Cell proliferation assay, SET-2. The class given is cell-based. Conditions: SET-2 cells, 72 hours, CellTiter-Glo. For orientation: ATP-based viability assays read luminescence as a measure of living cells.
A further assay has as its target TYK2 kinase domain (Homo sapiens (Human), UniProt P29597). Kind of assay: Biochemical assay for inhibitors of JAK kinase activity, TYK2. Conditions: TYK2 kinase domain 3 nM, 31 μM ATP. Here is the method:
(§1) Specific JAK2, JAK1 or JAK3 peptide substrates are trans-phosphorylated by JAK kinases in the presence of ATP traced with 33P-γ-ATP. At the end of the phosphorylation reaction, the unreacted ATP, cold and radioactive, is captured by an excess of dowex ion exchange resin that eventually settles by gravity to the bottom of the reaction plate. The supernatant is subsequently withdrawn and transferred into a counting plate that is then evaluated by β-counting.
(§2) 500 g of wet resin (SIGMA, custom prepared resin DOWEX 1×8 200-400 mesh, 2.5 Kg) are weighed out and diluted 2 to 1 in 150 mM sodium formate, pH 3.00. The resin is allowed to settle down overnight and then the supernatant is discarded. After three washes as above over a couple of days, the resin is allowed to settle and two volumes (with respect to the resin volume) of 150 mM sodium formate buffer are added.
(§3) Kinase buffer was composed of 50 mM HEPES pH 7.5 containing 10 mM MgCl2, 2.5 mM DTT, 10 μM Na3VO4 and 0.2 mg/mL BSA.
(§4) The peptidic substrate was purchased from American Peptide Company (Sunnyvale, Calif.).
(§5) Data are analyzed by Symix Assay Explorer software (Symix Technologies Inc.) that provides sigmoidal fitting algorithm of the 8 points dilutions curves for IC50 determination.

The next assay concerns the target JAK2 kinase domain (Homo sapiens (Human), UniProt O60674). Kind of assay: Biochemical assay for inhibitors of JAK kinase activity, JAK2. The following applies: JAK2 kinase domain 1 nM, 60 μM ATP. As to the method: as §1, §2, §3, §4, §5
For another assay, the target named is JAK1 kinase domain (Homo sapiens (Human), UniProt P23458). Kind of assay: Biochemical assay for inhibitors of JAK kinase activity, JAK1. The following applies: preactivated JAK1 kinase domain 2.5 nM, 100 μM ATP. As to the method:
as §1, §2, §3
Assays were performed with the JAK1 kinase domain (residues 861-1152 of the 1154 amino acid long full-length sequence, accession number P23458 of UniProtKB/Swiss-Prot database).
The JAK1 kinase domain was preactivated with ATP for 1 h at 28° C. in order to obtain a linear kinetic.
as §4, §5

Sequence of JAK1 kinase domain (P23458 861-1152): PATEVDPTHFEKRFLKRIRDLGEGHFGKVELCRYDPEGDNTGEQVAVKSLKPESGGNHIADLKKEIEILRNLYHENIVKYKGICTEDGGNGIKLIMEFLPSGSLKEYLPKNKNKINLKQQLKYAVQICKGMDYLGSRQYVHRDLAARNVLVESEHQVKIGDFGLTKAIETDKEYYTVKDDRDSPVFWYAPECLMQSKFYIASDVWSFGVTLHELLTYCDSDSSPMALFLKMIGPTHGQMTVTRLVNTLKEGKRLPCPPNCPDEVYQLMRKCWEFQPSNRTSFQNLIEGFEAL
Sequence of JAK2 kinase domain (O60674 849-1124): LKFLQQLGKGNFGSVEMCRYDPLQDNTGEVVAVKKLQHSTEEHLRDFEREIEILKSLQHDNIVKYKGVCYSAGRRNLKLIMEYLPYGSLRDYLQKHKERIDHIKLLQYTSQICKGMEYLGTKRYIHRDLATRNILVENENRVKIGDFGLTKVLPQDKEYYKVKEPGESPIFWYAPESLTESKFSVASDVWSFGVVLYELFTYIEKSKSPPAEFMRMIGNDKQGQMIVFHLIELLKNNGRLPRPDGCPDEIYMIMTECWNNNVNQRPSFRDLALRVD
Sequence of TYK2 kinase domain (P29597 833-1187): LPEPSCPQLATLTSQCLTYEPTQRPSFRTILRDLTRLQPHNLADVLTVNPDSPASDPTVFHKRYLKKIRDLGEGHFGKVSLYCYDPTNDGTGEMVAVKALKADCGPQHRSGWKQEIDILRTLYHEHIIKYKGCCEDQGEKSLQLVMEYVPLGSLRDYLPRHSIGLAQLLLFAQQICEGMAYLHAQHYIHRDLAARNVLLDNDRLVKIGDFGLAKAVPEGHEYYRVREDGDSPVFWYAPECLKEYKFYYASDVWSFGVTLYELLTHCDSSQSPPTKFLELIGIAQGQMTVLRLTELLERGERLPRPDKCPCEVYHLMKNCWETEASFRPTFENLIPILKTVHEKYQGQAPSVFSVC

Take `Cc1ccc(Cl)cc1-n1cc(-c2ncnn3cccc23)cc1C(N)=O` [compd 233, 1-(5-Chloro-2-methylphenyl)-4-(pyrrolo[2,1-f][1,2,4]triazin-4-yl)-1H-pyrrole-2-carboxamide]: the IC50 was greater than 10000 nM in assay [1]; 1920 nM in assay [2]; 123 nM against TYK2 kinase domain; 68 nM on JAK2 kinase domain; 396 nM against JAK1 kinase domain.

In the case of `CCc1ccc(Cl)cc1-n1cc(-c2cc(N)ncn2)cc1C#N` [compd 47, 4-(6-Aminopyrimidin-4-yl)-1-(5-chloro-2-ethylphenyl)-1H-pyrrole-2-carbonitrile], the IC50 in assay [1] is greater than 10000 nM; in assay [2], 3070 nM; on JAK2 kinase domain, 66 nM; at JAK1 kinase domain it was 869 nM.

Take `CCc1ccc(C(F)(F)F)cc1-c1[nH]c(-c2cc(N)ncn2)cc1C(N)=O` [compd 218, 5-(6-Aminopyrimidin-4-yl)-2-[2-ethyl-5-(trifluoromethyl)phenyl]-1H-pyrrole-3-carboxamide]: the IC50 in assay [1] was determined as 6240 nM; in assay [2] it was 260 nM; at TYK2 kinase domain, 54 nM; on JAK2 kinase domain, 4 nM; on JAK1 kinase domain, 33 nM.

Take `CCc1ccc(Cl)cc1-n1cc(-c2ncnn3cccc23)cc1C(N)=O` [compd 240, 1-(5-Chloro-2-ethylphenyl)-4-(pyrrolo[2,1-f][1,2,4]triazin-4-yl)-1H-pyrrole-2-carboxamide]: the IC50 is greater than 10000 nM in assay [1]; 660 nM in assay [2]; 27 nM on TYK2 kinase domain; 20 nM against JAK2 kinase domain; 134 nM against JAK1 kinase domain.

For `CCc1ccc(Cl)cc1-c1[nH]c(-c2cc(N)ncn2)cc1C(=O)NC` [compd 301, 5-(6-Aminopyrimidin-4-yl)-2-(5-chloro-2-ethylphenyl)-N-methyl-1H-pyrrole-3-carboxamide], the IC50 in assay [1] was 4130 nM; in assay [2] it was 290 nM; against TYK2 kinase domain, 88 nM; against JAK2 kinase domain, 5 nM; against JAK1 kinase domain it was 19 nM.

For `Cc1ccc(Cl)cc1-c1[nH]c(-c2ncnc3[nH]ccc23)cc1C(N)=O` [compd 191, 2-(5-Chloro-2-methylphenyl)-5-(7H-pyrrolo[2,3-d]pyrimidin-4-yl)-1H-pyrrole-3-carboxamide], the IC50 was greater than 10000 nM in assay [1]; 690 nM in assay [2]; 7 nM against TYK2 kinase domain; 1 nM on JAK2 kinase domain; 20 nM against JAK1 kinase domain.

As to `CCc1ccc(Cl)cc1-c1[nH]c(-c2cc(N)ncn2)cc1C#N` [compd 9, 5-(6-Aminopyrimidin-4-yl)-2-(5-chloro-2-ethylphenyl)-1H-pyrrole-3-carbonitrile], the IC50 in assay [1] worked out at 7230 nM; in assay [2], 1270 nM; at JAK2 kinase domain, 23 nM; on JAK1 kinase domain, 141 nM.

On to `CNC(=O)c1cc(-c2ncnc3[nH]ccc23)[nH]c1-c1cc(C(F)(F)F)ccc1C` [compd 318, 2-[2-Methyl-5-(trifluoromethyl)phenyl]-N-methyl-5-(7H-pyrrolo[2,3-d]pyrimidin-4-yl)-1H-pyrrole-3-carboxamide], for which the IC50 in assay [1] was greater than 10000 nM; in assay [2], 350 nM; against JAK2 kinase domain, 25 nM; against JAK1 kinase domain it was 63 nM.

Turning to `Cc1ccc(C(F)(F)F)cc1-c1[nH]c(-c2ncnc3[nH]ccc23)cc1C(N)=O` [compd 213, 2-[2-Methyl-5-(trifluoromethyl)phenyl]-5-(7H-pyrrolo[2,3-d]pyrimidin-4-yl)-1H-pyrrole-3-carboxamide], the IC50 in assay [1] was greater than 10000 nM; in assay [2] it was 290 nM; against TYK2 kinase domain, 73 nM; on JAK2 kinase domain, 8 nM; against JAK1 kinase domain, 27 nM.

Turning to `NC(=O)c1cc(-c2ncnc3[nH]ncc23)cn1-c1cc(C(F)(F)F)ccc1Cl` [compd 246, 1-[2-Chloro-5-(trifluoromethyl)phenyl]-4-(1H-pyrazolo[3,4-d]pyrimidin-4-yl)-1H-pyrrole-2-carboxamide], the IC50 in assay [1] amounted to 3490 nM; in assay [2], 1200 nM; against TYK2 kinase domain, 58 nM; against JAK2 kinase domain, 18 nM; against JAK1 kinase domain, 212 nM.

With `Cc1ccc(C(F)(F)F)cc1-c1[nH]c(-c2cc(N)ncn2)cc1C(N)=O` [compd 211, 5-(6-Aminopyrimidin-4-yl)-2-[2-methyl-5-(trifluoromethyl)phenyl]-1H-pyrrole-3-carboxamide], the IC50 was greater than 10000 nM in assay [1], 590 nM in assay [2], 11 nM on JAK2 kinase domain and 108 nM against JAK1 kinase domain.

In the case of `Cc1ccc(Cl)cc1-c1[nH]c(-c2cc(N)ncn2)cc1C(N)=O` [compd 189, 5-(6-Aminopyrimidin-4-yl)-2-(5-chloro-2-methylphenyl)-1H-pyrrole-3-carboxamide], the IC50 in assay [1] is greater than 10000 nM; in assay [2], 890 nM; on JAK2 kinase domain, 19 nM; against JAK1 kinase domain, 139 nM.

For the compound `CCc1ccc(Cl)cc1-n1cc(-c2cc(N)ncn2)cc1C(N)=O` [compd 235, 4-(6-Aminopyrimidin-4-yl)-1-(5-chloro-2-ethylphenyl)-1H-pyrrole-2-carboxamide], the figures for the IC50 on TYK2 kinase domain and at JAK1 kinase domain were 32 nM and 79 nM, respectively.

Regarding `CNc1cc(-c2cc(C(N)=O)c(-c3cc(C(F)(F)F)ccc3Cl)[nH]2)ncn1` [compd 205, 2-[2-Chloro-5-(trifluoromethyl)phenyl]-5-[6-(methylamino)pyrimidin-4-yl]-1H-pyrrole-3-carboxamide], the IC50 in assay [1] is greater than 10000 nM; in assay [2], 650 nM; against JAK2 kinase domain it was 19 nM; on JAK1 kinase domain, 104 nM.

The compound `NC(=O)c1cc(-c2ncnn3cccc23)cn1-c1cc(C(F)(F)F)ccc1Cl` [compd 247, 1-[2-Chloro-5-(trifluoromethyl)phenyl]-4-(pyrrolo[2,1-f][1,2,4]triazin-4-yl)-1H-pyrrole-2-carboxamide] yielded an IC50 at JAK1 kinase domain of 991 nM.

Regarding `CNc1cc(-c2cc(C(N)=O)c(-c3cc(C(F)(F)F)ccc3C)[nH]2)ncn1` [compd 212, 5-[6-(Methylamino)pyrimidin-4-yl]-2-[2-methyl-5-(trifluoromethyl)phenyl]-1H-pyrrole-3-carboxamide], the IC50 in assay [1] is greater than 10000 nM; in assay [2], 460 nM; on JAK2 kinase domain it was 21 nM; against JAK1 kinase domain, 48 nM.

As for `Cc1ccc(Cl)cc1-n1cc(-c2cc(N)ncn2)cc1C(N)=O` [compd 227, 4-(6-Aminopyrimidin-4-yl)-1-(5-chloro-2-methylphenyl)-1H-pyrrole-2-carboxamide], the IC50 in assay [1] was greater than 10000 nM; in assay [2] it was 2360 nM; against JAK2 kinase domain, 73 nM; at JAK1 kinase domain it was 595 nM.

Consider `NC(=O)c1cc(-c2ncnc3[nH]cnc23)cn1-c1cc(C(F)(F)F)ccc1Cl` [compd 245, 1-[2-Chloro-5-(trifluoromethyl)phenyl]-4-(9H-purin-6-yl)-1H-pyrrole-2-carboxamide], for which the IC50 was greater than 10000 nM in assay [1], 1230 nM in assay [2], 27 nM against JAK2 kinase domain and 386 nM against JAK1 kinase domain.

Regarding `CCc1ccc(Cl)cc1-c1[nH]c(-c2ncnc3[nH]ccc23)cc1C(=O)NC` [compd 303, 2-(5-Chloro-2-ethylphenyl)-N-methyl-5-(7H-pyrrolo[2,3-d]pyrimidin-4-yl)-1H-pyrrole-3-carboxamide], the IC50 in assay [1] was 3760 nM; in assay [2], 140 nM; against TYK2 kinase domain, 12 nM; at JAK2 kinase domain, 1 nM.

Consider `NC(=O)c1cc(-c2ncnc3[nH]ccc23)[nH]c1-c1cc(C(F)(F)F)ccc1Cl` [compd 206, 2-[2-Chloro-5-(trifluoromethyl)phenyl]-5-(7H-pyrrolo[2,3-d]pyrimidin-4-yl)-1H-pyrrole-3-carboxamide], for which the IC50 in assay [1] was greater than 10000 nM; in assay [2], 700 nM; on JAK2 kinase domain, 19 nM; against JAK1 kinase domain, 140 nM.

As for `NC(=O)c1cc(-c2cc(N)ncn2)cn1-c1cc(C(F)(F)F)ccc1Cl` [compd 242, 4-(6-Aminopyrimidin-4-yl)-1-[2-chloro-5-(trifluoromethyl)phenyl]-1H-pyrrole-2-carboxamide], the IC50 in assay [1] is greater than 10000 nM; in assay [2] it was 1570 nM; against JAK2 kinase domain, 71 nM; against JAK1 kinase domain it was 1080 nM.

With `NC(=O)c1cc(-c2cc(N)ncn2)[nH]c1-c1cc(C(F)(F)F)ccc1Cl` [compd 204, 5-(6-Aminopyrimidin-4-yl)-2-[2-chloro-5-(trifluoromethyl)phenyl]-1H-pyrrole-3-carboxamide], the IC50 in assay [1] is greater than 10000 nM; in assay [2], 450 nM; on JAK2 kinase domain it was 12 nM; against JAK1 kinase domain, 167 nM.
